Results from patent US12522610B2 (priority 2018, dated 2026).
In brackets after ≈: the same amount, converted by molar mass. Read-outs that look alike come from different tables or passages of the source.

How the values were obtained:
[1] = physchem; details: 55 °C, aqueous with cosolvent or surfactant or cyclodextrin, thermodynamic from solid
[2] = salt forms; dissolution medium, 55° C. water bath, 60 rpm; Table 4

| Molecule | solubility [1] [µg/mL] | solubility [2] [µg/mL] |
| --- | --- | --- |
| COC12CC[C@@]3(C[C@@H]1[C@](C)(O)C(C)(C)C)C1Cc4ccc(O)c5c4[C@@]3(CCN1CC1CC1)[C@H]2O5 [Buprenorphine free base] | 1180 (≈ 2510 µM) | – |
| Buprenorphine acetate-hydrochloride salt | – | 1716 |
